Source: US11161845B2, “Pyrrolopyridine-aniline compounds for treatment of dermal disorders” (Nflection Therapeutics, Inc., priority 2017, dated 2021)

Experiments:
[1] = S9 stability assay, human liver S9 fraction; format: in vitro ADME; details: for CLint: known MEK compounds; for microsomal CLint at 1 μM / half-life at 1 μM: pH 7.4, Table 1, human liver S9 fraction; for microsomal CLint at 1 μM: read-out: CLint; for half-life at 1 μM: read-out: Liver S9 t1/2
Method: Compounds were assessed for metabolic stability in human skin by assessing their rate of disappearance from human S9 skin fraction. Similarly, compounds were assessed for metabolic stability in human liver by assessing their rate of disappearance from human S9 liver fraction. The protocol below can be used to assess the difference between skin and hepatic metabolism.
The assay was carried out in 96-well microtiter plates at 37° C. Reaction mixtures (25 μL) contained a final concentration of 1 μM test compound, 2 mg/mL liver or skin S9 protein, and 1 mM NADPH in buffer (100 mM potassium phosphate, pH 7.4 buffer with 1 mM EDTA, 3 mM MgCl2). At each of the time points (0, 15, 30, and 60 minutes), 150 μL of quench solution (100% acetonitrile with 0.1% formic acid) with internal standard was transferred to each well. Besides the zero minute controls, mixtures containing the same components except the NADPH were also prepared as the negative control. Verapamil or testosterone was included as a positive control to verify assay performance. Plates were sealed and centrifuged at 4° C. for 15 minutes at 4000 rpm. The supernatant was transferred to fresh plates for LC/MS/MS analysis.
All samples were analyzed on LC/MS/MS using an AB Sciex API 4000 instrument, coupled to a Shimadzu LC-20AD LC Pump system. Analytical samples were separated using a Waters Atlantis T3 dC18 reverse phase HPLC column (20 mm×2.1 mm) at a flow rate of 0.5 mL/min. The mobile phase consisted of 0.1% formic acid in water (solvent A) and 0.1% formic acid in 100% acetonitrile (solvent B).
The extent of metabolism was calculated as the disappearance of the test compound, compared to the 0-min control reaction incubations. Initial rates were calculated for the compound concentration and used to determine t1/2 values and subsequently, the intrinsic clearance, CLint=(0.693) (1/t1/2 (min)) (mL incubation/mg of S9 protein).

hERG channel protein = target: T1, hERG channel protein (Homo sapiens, UniProt Q12809); experiment: hERG screening assay (Predictor hERG FP); format: binding; details: fluorescence polarization tracer displacement
T1 construct: purchased ThermoFisher PV5365
T1 sequence (Q12809 whole entry): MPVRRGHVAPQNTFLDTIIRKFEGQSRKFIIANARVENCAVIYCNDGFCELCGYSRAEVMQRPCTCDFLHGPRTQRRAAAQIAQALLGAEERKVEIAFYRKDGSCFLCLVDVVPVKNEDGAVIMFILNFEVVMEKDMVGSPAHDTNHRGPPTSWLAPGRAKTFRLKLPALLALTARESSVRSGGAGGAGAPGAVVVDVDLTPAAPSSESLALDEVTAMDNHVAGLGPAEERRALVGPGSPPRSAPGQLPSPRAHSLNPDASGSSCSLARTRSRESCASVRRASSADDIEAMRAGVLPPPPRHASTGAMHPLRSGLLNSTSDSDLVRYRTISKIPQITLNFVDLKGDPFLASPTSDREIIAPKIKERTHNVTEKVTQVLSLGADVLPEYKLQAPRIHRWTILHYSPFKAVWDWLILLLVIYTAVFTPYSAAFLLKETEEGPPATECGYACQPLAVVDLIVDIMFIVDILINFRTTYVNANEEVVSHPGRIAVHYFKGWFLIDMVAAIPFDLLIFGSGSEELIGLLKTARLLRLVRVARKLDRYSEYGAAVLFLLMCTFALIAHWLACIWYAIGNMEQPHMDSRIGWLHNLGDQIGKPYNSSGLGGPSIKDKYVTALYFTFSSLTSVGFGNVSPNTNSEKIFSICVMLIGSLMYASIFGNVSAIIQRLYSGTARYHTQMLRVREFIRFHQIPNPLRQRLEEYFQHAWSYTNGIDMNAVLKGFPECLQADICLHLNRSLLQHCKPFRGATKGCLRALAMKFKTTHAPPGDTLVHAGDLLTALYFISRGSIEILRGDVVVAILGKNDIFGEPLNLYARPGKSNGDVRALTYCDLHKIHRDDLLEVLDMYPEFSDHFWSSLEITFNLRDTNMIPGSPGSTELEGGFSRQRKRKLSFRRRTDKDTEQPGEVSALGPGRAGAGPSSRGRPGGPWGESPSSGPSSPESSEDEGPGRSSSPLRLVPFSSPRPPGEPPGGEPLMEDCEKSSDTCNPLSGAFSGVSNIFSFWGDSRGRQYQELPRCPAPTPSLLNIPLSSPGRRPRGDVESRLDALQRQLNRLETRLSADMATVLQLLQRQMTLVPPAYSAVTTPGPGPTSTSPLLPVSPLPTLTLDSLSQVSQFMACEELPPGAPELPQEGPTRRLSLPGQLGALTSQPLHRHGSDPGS
Method: hERG screening was conducted using a procedure similar to the procedure described by Piper et al. (Piper, D. R. et al., Assay Drug Dev. Technol. 2008, 6(2):213-223). The Predictor hERG FP assay (available from ThermoFisher, cat. no. PV5365) is a homogenous, fluorescence polarization biochemical-based format utilizing a membrane fraction containing hERG channel protein (Predictor hERG Membrane) and a high affinity, red-fluorescent hERG channel ligand (Predictor hERG Tracer Red). When the Predictor hERG Tracer ligand is bound to the hERG channel it produces high fluorescence polarization values. Compounds that bind to the hERG channel protein (competitors) displace the Predictor hERG Tracer Red resulting in decreased fluorescence polarization values.
Test compounds were solubilized in DMSO at 100× (or greater) of the desired starting concentration. Screening was conducted with a final concentration of 1% DMSO. For 10-point titrations, 3-fold serial dilutions were performed from the starting concentrations. The assay buffer used was 25 mM HEPES (pH 7.5), 15 mM KCl, 1 mM MgCl2, and 0.05% Pluronic F-127 (available from Sigma-Aldrich).
Predictor hERG membranes were stored as a 2× stock at −80° C. Each membrane lot was titrated to identify the concentration of membranes required to obtain ˜70% bound tracer. Before setting up the assay the membranes were thawed in a 37° C. water bath and stored at room temperature. To avoid light scatter caused by large membrane particulates the membranes were sonicated until a homogeneous solution free of particulates is obtained. […]
384 well untreated low-volume polystyrene microplates (Corning Cat. #4511) were used for the assay. […] The assay plate was read on a fluorescence plate reader (Tecan Safire^2) and the data was analyzed. […]
Assay blank control wells consisted of Predictor hERG Membranes and Assay Buffer. The blank wells were used for background subtraction of raw parallel and perpendicular fluorescence values prior to the calculation of polarization values. […]

P-gp (human MDR1) = experiment: in vitro; details: dog; for Papp A→B at 1 h, 5 μM / Papp B→A at 1 h, 5 μM: MDCK-MDR1, Papp
Method: (§1) MDCK-MDR1 is a stable-transfected cell line originating from MDCK cells, with over-expression of human MDR1 gene. The cell line is widely used for the identification and characterization of P-gp substrates and inhibitors.
(§2) MDCK-MDR1 cells were plated into 96-well Millipore Millicell-96 plates at 7,500 cells/75 μL/well and incubated for three days at 37° C. with 5% CO2. Cells were washed with Hank's Balanced Salt Solution (HBSS) with 5 mM HEPES for 30 minutes before starting the experiment. Test compound solutions were prepared by diluting DMSO stock into HBSS buffer, resulting in a final DMSO concentration of 0.1%. Prior to the experiment, cell monolayer integrity was verified by […] electrical resistance (TEER). Transport experiment was initiated by adding test compounds to the apical (75 μL) or basal (250 μL) side. Transport plates were incubated at 37° C. in a humidified incubator with 5% CO2. Samples were taken from the donor and acceptor compartments after one hour and analyzed by liquid chromatography with tandem mass spectrometry (LC/MS/MS).
(§3) Digoxin was used as reference control.
(§4) Apparent permeability (Papp) values were calculated using the following equation: Papp=(dQ/dt)/A/Co; where dQ/dt is the initial rate of amount of test compound transported across cell monolayer, A is the surface area of the filter membrane, and Co is the initial concentration of the test compound, calculated for each direction using a 4-point calibration curve by LC/MS/MS.
(§5) Net flux ratio between the two directional transports was calculated by the following equation: Ratio=Papp, B-A/Papp, A-B; where Papp, B-A and Papp, A-B represent the apparent permeability of test compound from the basal-to-apical and apical-to-basal side of the cellular monolayer, respectively.
(§6) Recovery was calculated based on the compound concentration at the end of the experiment, compared to that at the beginning of the experiment, adjusted for volumes.
(§7) A net flux ratio greater than two was considered a positive result for substrate determination. […] If the addition of a known P-gp inhibitor to the experiment reduces the net flux ratio by a significant amount (more than 50% reduction or reduces the ratio to close to unity), it is likely that the compound tested is a P-gp substrate.

MDCK-MDR1 cells = experiment: in vitro; details: dog, MDCK-MDR1, 1 h, 5 μM
Method: as §1, §2, §3, §4, §5, §6, §7

[2] = clinically tested; cited from earlier work

Compound	CLint [1]	microsomal CLint at 1 μM [1]	half-life at 1 μM [1]	IC50 (hERG channel protein)	efflux ratio at 1 h, 5 μM (P-gp (human MDR1); MDCK-MDR1)	Papp A→B at 1 h, 5 μM (P-gp (human MDR1); A-B Mean)	Papp A→B at 1 h, 5 μM (P-gp (human MDR1); A-B Value)	Papp B→A at 1 h, 5 μM (P-gp (human MDR1); B-A Mean)	Papp B→A at 1 h, 5 μM (P-gp (human MDR1); B-A Value)	Papp, A-B Value (MDCK-MDR1 cells)	Papp, B-A Value (MDCK-MDR1 cells)	Recover Rate (MDCK-MDR1 cells)	side effects [2]
Cn1c(C(=O)NOCCO)c(Nc2ccc(I)cc2F)c2cnccc21 [Example C8]	5.27 μL/min/mg protein	5.27 µL/min/mg	1.1 h	1.8 µM	3.4	12.8 ×10⁻⁶ cm/s	12.7 ×10⁻⁶ cm/s	43.5 ×10⁻⁶ cm/s	43.2 ×10⁻⁶ cm/s	12.9 ×10⁻⁶ cm/s	43.7 ×10⁻⁶ cm/s	99%	
O=C(NOC[C@H](O)CO)c1c(Nc2ccc(I)cc2F)sc2ncccc12 [Example C9]	2.20 μL/min/mg protein	2.2 µL/min/mg	2.63 h	7.3 µM									
O=C(NOC[C@H](O)CO)c1ccc(F)c(F)c1Nc1ccc(I)cc1F [PD0325901]													neurological side effects associated with ataxia, confusion, and syncope
